The source of these data is patent US20250129070A1, “BIFUNCTIONAL ANDROGEN RECEPTOR COMPOUNDS” (priority 2023, published 2025).

Type in all cases: cell-based
In one assay the test system is AR / CBP ternary complex. As to the kind of experiment: Ternary complex formation assay (sandwich ELISA, AR capture / CBP detection) in VCaP cell lysates. Conditions: 1.5 hours treatment, sandwich ELISA (AR capture, CBP or p300 detection). The procedure, abridged: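 VCaP cells (50K/well, 5% charcoal-stripped FBS, ≥3 days) treated with bifunctional compound for 1.5 h, then lysed 30 min at 4 °C. AR captured on anti-AR (AR 441) plates; bound CBP or p300 detected by rabbit mAb plus HRP secondary. QuantaRed chemifluorescence read at ex 570/em 585, immediately and at 5 and 15 min.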
For orientation: An ELISA detects its analyte on a solid surface through an enzyme-linked reagent.

The test system of the next assay is VCaP cells. As to the kind of experiment: VCaP growth inhibition assay. Conditions: 30 pM R1881, 9 days, CTG. The procedure, abridged:
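VCaP cells in phenol red-free DMEM/5% CSS, pre-incubated 72 h, then stimulated with R1881 (final 30 pM) and treated with 1:5 serial dilutions (final 100 nM to 10 fM) for 9 days at 37 °C. Viability by CellTiter-Glo luminescence; IC50 from 4-parameter logistic fit of RLU vs concentration.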

A further assay concerns HEK-293 cells. As to the kind of experiment: HEK-293 growth inhibition assay. Conditions: 3 days, CTG. The procedure, abridged:
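HEK-293 cells plated 24 hours before compound treatment, then exposed for 3 days at 37°C/5% CO2. Viability by CellTiter-Glo luminescence after 20 minutes at room temperature. IC50 from RLU versus concentration via 4-parameter logistic nonlinear regression.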

For orientation: EC50 means the midpoint of the concentration-response curve. Usually IC50 stands for the midpoint of a concentration-inhibition curve. Read a low IC50 as higher potency. `CC(=O)N1CCc2c(c(N3CCCc4cc(-c5cnn(C)c5)c(C(F)F)cc43)nn2C2CCN(S(=O)(=O)C3CCN(c4ncc(C(=O)NC5C(C)(C)C(Oc6ccc(C#N)c(Cl)c6)C5(C)C)cn4)CC3)CC2)C1` (stereo not drawn) [Compound 28, 2-[4-[[4-[5-acetyl-3-[7-(difluoromethyl)-6-(1-methylpyrazol-4-yl)-3,4-dihydro-2H-quinolin-1-yl]-6,7-dihydro-4H-pyrazolo[4,3-c]pyridin-1-yl]-1-piperidyl]sulfonyl]-1-piperidyl]-N-[3-(3-chloro-4-cyano-phenoxy)-2,2,4,4-tetramethyl-cyclobutyl]pyrimidine-5-carboxamide] displayed an EC50 in the assay with AR / CBP ternary complex of under 1 nM. Further, the half-inhibitory concentration (IC50) was at most 0.1 nM with VCaP cells and over 10000 nM in the assay on HEK-293 cells.
The corresponding values for `CC(=O)N1CCc2c(c(N3CCCc4cc(-c5cnn(C)c5)c(C(F)F)cc43)nn2C2CCN(CC3C(C)CN(c4ncc(C(=O)NC5C(C)(C)C(Oc6ccc(C#N)c(Cl)c6)C5(C)C)cn4)CC3C)CC2)C1` (stereo not drawn) [Compound 350, 2-[4-[[4-[5-acetyl-3-[7-(difluoromethyl)-6-(1-methylpyrazol-4-yl)-3,4-dihydro-2H-quinolin-1-yl]-6,7-dihydro-4H-pyrazolo[4,3-c]pyridin-1-yl]-1-piperidyl]methyl]-3,5-dimethyl-1-piperidyl]-N-[3-(3-chloro-4-cyano-phenoxy)-2,2,4,4-tetramethyl-cyclobutyl]pyrimidine-5-carboxamide] are under 1 nM, at most 0.1 nM and over 1000 nM.
Regarding `CNC(=O)N1CCc2c(c(N3CCCc4cc(-c5cnn(C)c5)c(C(F)F)cc43)nn2C2CCN(C(=O)CN3CCN(c4ccc(C(=O)NC5C(C)(C)C(Oc6ccc(C#N)c(Cl)c6)C5(C)C)cc4)CC3)CC2)C1` (stereo not drawn) [Compound 41, 1-[1-[2-[4-[4-[[3-(3-chloro-4-cyano-phenoxy)-2,2,4,4-tetramethyl-cyclobutyl]carbamoyl]phenyl]piperazin-1-yl]acetyl]-4-piperidyl]-3-[7-(difluoromethyl)-6-(1-methylpyrazol-4-yl)-3,4-dihydro-2H-quinolin-1-yl]-N-methyl-6,7-dihydro-4H-pyrazolo[4,3-c]pyridine-5-carboxamide], the EC50 in the assay on AR / CBP ternary complex is under 1 nM. Besides, the figures for the IC50 in the assay on VCaP cells and in the assay with HEK-293 cells were 0.1 to 1 nM and over 10000 nM, respectively.
Taken in the same sequence, the figures for `CNC(=O)N1CCc2c(c(N3CCCc4cc(-c5cnn(C)c5)c(C(F)F)cc43)nn2C2CCN(CC3CCN(c4ncc(C(=O)NC5C(C)(C)C(Oc6ccc(C#N)c(Cl)c6)C5(C)C)cn4)CC3)CC2)C1` (stereo not drawn) [Compound 82, 1-[1-[[1-[5-[[3-(3-chloro-4-cyano-phenoxy)-2,2,4,4-tetramethyl-cyclobutyl]carbamoyl]pyrimidin-2-yl]-4-piperidyl]methyl]-4-piperidyl]-3-[7-(difluoromethyl)-6-(1-methylpyrazol-4-yl)-3,4-dihydro-2H-quinolin-1-yl]-N-methyl-6,7-dihydro-4H-pyrazolo[4,3-c]pyridine-5-carboxamide] were under 1 nM, at most 0.1 nM and over 10000 nM.
The corresponding values for `COc1cc(OC2C(C)(C)C(NC(=O)c3ccc(N4CC(C)C(CN5CCC(n6nc(N7CCCc8cc(-c9cnn(C)c9)c(C(F)F)cc87)c7c6CCN(C(C)=O)C7)CC5)C(C)C4)cc3)C2(C)C)ccc1C#N` (stereo not drawn) [Compound 327, 4-[4-[[4-[5-acetyl-3-[7-(difluoromethyl)-6-(1-methylpyrazol-4-yl)-3,4-dihydro-2H-quinolin-1-yl]-6,7-dihydro-4H-pyrazolo[4,3-c]pyridin-1-yl]-1-piperidyl]methyl]-3,5-dimethyl-1-piperidyl]-N-[3-(4-cyano-3-methoxy-phenoxy)-2,2,4,4-tetramethyl-cyclobutyl]benzamide] are under 1 nM, 0.1 to 1 nM and over 1000 nM.
